Test results: US20100227853A1, “INHIBITORS OF CYCLIC AMP PHOSPHODIESTERASES” (Trustees of Boston College, priority 2008, published 2010)
pEC50, pIC50: −log10 of the molar value. Each block holds one compound with its values, some of them ahead of it.

How the values were obtained:
PDE7B = PDE7B (Homo sapiens, UniProt Q9NP56); assay: 5FOA growth assay in fission yeast strain expressing PDE7B; format: cell-based; parameters: targets used in the assays are full-length proteins (as opposed to simply the catalytic domain); expressed in transfected cells; host or cells: Schizosaccharomyces pombe; conditions: OD600 0.6; read-out: ED50 for 5FOA growth assays, PDE7B
Protocol: PDE inhibition allows growth in 5FOA medium as measured by optical density after 48 hours incubation at 30° C. Compound BC12 and six structural analogs were tested for growth stimulation.
(§1) Cells were pregrown in EMM medium [MP Biomedicals (Solon, Ohio), 3% glucose, filter-sterilized to avoid carmelization, which would introduce variability into the optical density of the medium] containing from 0 mM to 2.5 mM cAMP (or either 0.5 mM or 1.0 mM cGMP). This was to repress expression of the fbp1-ura4 reporter prior to exposure of cells to 5FOA medium. Cells were grown at 30° C. to exponential phase (approximately 10^7 cells/ml). Cells were collected by centrifugation and resuspended in 5FOA medium, and 25 μl were transferred to 384-well microtiter dishes (untreated, with flat clear bottoms) that had been pre-filled with 25 μl 5FOA medium and pre-pinned with 100 nl of compounds (stock solutions were generally 10 mM). Starting cell concentrations ranged from 0.5×10^5 to 4×10^5 cells/ml depending on the screening strain. […] Other positive control dishes contained 5 mM cAMP in the 5FOA medium for PDEs that lack appropriate control compounds. Cultures were grown for 48 hours at 30° C., sealed in an airtight container with moist paper towels to prevent evaporation. Optical densities (OD600) of cultures were measured using a microplate reader. Bioinformatic analysis of the results to determine composite Z scores was performed as previously described (1, 3).

PDE4D2 = target: T1, PDE4D2 (Homo sapiens, UniProt Q08499); assay: 5FOA growth assay in fission yeast strain expressing PDE4D2; format: cell-based; conditions: OD600 0.6; read-out: ED50 for 5FOA growth assays, PDE4D2
T1 construct: targets used in the assays are full-length proteins (as opposed to simply the catalytic domain); expressed in transfected cells; host or cells: Schizosaccharomyces pombe
Protocol: as §1, with “Cells were collected by centrifugation and resuspended in 5FOA medium, and 25 μl were transferred to 384-well microtiter dishes (untreated, with flat clear bottoms) that had been pre-filled with 25 μl 5FOA medium and pre-pinned with 100 nl of compounds (stock solutions were generally 10 mM).” left out

PDE4D3 = target: T2, PDE4D3 (Homo sapiens, UniProt Q08499); assay: cAMP response in yeast strain expressing PDE4D3; format: cell-based
T2 construct: targets used in the assays are full-length proteins (as opposed to simply the catalytic domain); expressed in transfected cells; host or cells: Schizosaccharomyces pombe, PDE gene integrated in place of cgs2

PDE4B2 = PDE4B2 (Homo sapiens, UniProt Q07343); assay: in vitro enzyme assay, E. coli expressed and purified PDE4B2; format: biochemical; parameters: targets used in the assays are full-length proteins (as opposed to simply the catalytic domain); conditions: read-out: IC50 (or AC200), PDE4B2
PDE4D2-FL = target: T3, PDE4D2-FL (Homo sapiens, UniProt Q08499); assay: in vitro enzyme assay, full-length PDE4D2 (residues 1-507); format: biochemical; conditions: read-out: IC50 (or AC200), PDE4D2-FL
T3 construct: 1-507; made in house; host or cells: E. coli

PDE4A10 = target: T4, PDE4A10 (Homo sapiens, UniProt P27815); assay: in vitro enzyme assay, E. coli expressed and purified PDE4A10; format: biochemical; conditions: read-out: IC50 (or AC200), PDE4A10
T4 construct: made in house; host or cells: E. coli

PDE4D2-CAT = target: T5, PDE4D2-CAT (Homo sapiens, UniProt Q08499); assay: in vitro enzyme assay, catalytic fragment of PDE4D2 (residues 86-413); format: biochemical; conditions: catalytic fragment; AC200 = [Compound] that doubles PDE activity; read-out: IC50 (or AC200), PDE4D2-CAT
T5 construct: 86-413; made in house; host or cells: E. coli

PDE4D = PDE4D (Homo sapiens, UniProt Q08499); assay: in vitro enzyme assay PDE4D (Table 7); format: biochemical; conditions: 2 micromolar compound; read-out: percent of PDE activity present, PDE4D
PDE7A = PDE7A (Homo sapiens, UniProt Q13946); assay: in vitro enzyme assay PDE7A; format: biochemical; parameters: made in house; host or cells: E. coli; conditions: 2 micromolar compound; read-out: percent of PDE activity present, PDE7A
PDE4A = PDE4A (Homo sapiens, UniProt P27815); assay: in vitro enzyme assay PDE4A (Table 7); format: biochemical; conditions: 2 micromolar compound; read-out: percent of PDE activity present, PDE4A
PDE4B = PDE4B (Homo sapiens, UniProt Q07343); assay: in vitro enzyme assay PDE4B (Table 7); format: biochemical; conditions: 2 micromolar compound; read-out: percent of PDE activity present, PDE4B
Chain of PDE4B (Q07343 whole entry, species assumed): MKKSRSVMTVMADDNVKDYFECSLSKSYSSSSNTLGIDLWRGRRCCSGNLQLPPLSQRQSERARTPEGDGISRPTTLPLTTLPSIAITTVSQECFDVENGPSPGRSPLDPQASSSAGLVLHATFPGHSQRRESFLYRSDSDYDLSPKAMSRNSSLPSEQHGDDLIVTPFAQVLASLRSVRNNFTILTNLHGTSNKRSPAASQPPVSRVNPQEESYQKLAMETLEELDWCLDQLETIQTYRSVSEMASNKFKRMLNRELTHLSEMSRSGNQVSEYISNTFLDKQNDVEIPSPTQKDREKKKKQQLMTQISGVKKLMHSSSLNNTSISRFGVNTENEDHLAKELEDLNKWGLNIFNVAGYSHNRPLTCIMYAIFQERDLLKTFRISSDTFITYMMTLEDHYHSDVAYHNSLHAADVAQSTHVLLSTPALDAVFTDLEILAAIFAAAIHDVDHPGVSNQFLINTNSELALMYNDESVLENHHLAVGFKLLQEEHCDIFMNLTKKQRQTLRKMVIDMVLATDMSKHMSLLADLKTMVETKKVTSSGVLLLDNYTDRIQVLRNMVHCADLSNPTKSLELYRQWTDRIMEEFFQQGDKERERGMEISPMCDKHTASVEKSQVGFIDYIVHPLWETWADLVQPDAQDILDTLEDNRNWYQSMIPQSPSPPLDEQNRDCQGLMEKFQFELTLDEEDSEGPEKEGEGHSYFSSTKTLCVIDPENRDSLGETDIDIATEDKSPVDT

Chain of PDE7B (Q9NP56 whole entry, species assumed, the tested form may be a part): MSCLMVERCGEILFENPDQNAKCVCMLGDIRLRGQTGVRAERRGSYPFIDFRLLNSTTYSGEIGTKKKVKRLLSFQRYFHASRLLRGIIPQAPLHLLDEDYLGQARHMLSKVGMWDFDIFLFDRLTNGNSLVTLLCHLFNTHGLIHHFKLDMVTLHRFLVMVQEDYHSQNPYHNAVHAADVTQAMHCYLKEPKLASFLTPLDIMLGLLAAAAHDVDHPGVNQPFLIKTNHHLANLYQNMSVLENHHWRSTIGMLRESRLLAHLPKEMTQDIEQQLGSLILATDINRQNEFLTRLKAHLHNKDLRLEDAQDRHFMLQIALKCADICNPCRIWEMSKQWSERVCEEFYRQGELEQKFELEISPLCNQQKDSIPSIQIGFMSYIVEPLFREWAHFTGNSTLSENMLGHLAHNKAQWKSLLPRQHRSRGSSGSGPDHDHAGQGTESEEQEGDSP
T2 sequence (Q08499 1-673 isoform Q08499-2): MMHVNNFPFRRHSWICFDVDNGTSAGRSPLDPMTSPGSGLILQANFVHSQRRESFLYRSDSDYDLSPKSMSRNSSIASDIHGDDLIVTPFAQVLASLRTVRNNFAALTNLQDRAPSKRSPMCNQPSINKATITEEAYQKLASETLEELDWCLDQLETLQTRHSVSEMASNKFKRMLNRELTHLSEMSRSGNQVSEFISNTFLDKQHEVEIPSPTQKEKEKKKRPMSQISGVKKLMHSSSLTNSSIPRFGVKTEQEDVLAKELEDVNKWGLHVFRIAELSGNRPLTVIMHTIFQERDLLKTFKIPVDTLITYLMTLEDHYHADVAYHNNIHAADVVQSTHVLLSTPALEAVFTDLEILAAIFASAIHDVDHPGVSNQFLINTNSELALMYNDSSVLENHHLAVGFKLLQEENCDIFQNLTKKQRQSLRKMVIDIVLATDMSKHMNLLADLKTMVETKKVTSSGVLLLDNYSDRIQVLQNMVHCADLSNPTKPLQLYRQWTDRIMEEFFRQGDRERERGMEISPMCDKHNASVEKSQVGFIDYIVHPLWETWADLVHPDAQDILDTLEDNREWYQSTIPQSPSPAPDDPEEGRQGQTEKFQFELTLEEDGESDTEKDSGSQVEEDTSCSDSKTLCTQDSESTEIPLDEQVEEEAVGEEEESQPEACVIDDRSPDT
T1 sequence (Q08499 303-809): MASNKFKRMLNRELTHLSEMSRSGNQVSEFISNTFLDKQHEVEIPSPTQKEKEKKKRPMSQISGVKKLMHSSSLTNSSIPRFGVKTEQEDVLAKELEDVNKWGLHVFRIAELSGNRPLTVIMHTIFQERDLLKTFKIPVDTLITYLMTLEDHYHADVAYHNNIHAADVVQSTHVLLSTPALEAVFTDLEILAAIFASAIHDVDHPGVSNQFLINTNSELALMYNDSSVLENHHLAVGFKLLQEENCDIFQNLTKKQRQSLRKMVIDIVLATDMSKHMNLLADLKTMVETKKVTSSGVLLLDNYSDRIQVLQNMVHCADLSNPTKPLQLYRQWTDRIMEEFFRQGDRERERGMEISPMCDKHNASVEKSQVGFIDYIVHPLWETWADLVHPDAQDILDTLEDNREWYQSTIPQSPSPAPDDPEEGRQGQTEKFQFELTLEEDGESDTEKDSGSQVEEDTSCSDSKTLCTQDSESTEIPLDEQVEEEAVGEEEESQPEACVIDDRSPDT
Chain of PDE4D (Q08499 whole entry): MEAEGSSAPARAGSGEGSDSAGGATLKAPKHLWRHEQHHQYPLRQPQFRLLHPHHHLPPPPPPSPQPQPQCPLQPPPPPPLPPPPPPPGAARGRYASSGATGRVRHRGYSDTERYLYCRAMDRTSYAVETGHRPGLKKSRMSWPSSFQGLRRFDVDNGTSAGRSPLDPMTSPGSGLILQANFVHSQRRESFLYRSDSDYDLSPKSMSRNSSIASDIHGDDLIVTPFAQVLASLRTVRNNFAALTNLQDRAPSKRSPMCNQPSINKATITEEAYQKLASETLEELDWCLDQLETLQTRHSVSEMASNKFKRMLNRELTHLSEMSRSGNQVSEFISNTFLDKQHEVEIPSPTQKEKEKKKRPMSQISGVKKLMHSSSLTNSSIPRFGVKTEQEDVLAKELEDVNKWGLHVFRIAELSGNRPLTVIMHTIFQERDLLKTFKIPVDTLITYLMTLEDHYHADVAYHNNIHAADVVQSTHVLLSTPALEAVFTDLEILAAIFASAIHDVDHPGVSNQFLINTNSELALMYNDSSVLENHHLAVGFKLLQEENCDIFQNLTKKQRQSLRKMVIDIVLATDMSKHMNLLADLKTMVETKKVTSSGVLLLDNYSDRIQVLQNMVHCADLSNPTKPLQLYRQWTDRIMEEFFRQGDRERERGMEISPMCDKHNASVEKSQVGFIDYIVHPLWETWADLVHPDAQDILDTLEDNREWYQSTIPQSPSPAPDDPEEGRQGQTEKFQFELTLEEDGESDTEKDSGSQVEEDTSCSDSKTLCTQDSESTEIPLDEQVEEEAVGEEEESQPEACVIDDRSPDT
T4 sequence (P27815 1-825 isoform P27815-6, species assumed): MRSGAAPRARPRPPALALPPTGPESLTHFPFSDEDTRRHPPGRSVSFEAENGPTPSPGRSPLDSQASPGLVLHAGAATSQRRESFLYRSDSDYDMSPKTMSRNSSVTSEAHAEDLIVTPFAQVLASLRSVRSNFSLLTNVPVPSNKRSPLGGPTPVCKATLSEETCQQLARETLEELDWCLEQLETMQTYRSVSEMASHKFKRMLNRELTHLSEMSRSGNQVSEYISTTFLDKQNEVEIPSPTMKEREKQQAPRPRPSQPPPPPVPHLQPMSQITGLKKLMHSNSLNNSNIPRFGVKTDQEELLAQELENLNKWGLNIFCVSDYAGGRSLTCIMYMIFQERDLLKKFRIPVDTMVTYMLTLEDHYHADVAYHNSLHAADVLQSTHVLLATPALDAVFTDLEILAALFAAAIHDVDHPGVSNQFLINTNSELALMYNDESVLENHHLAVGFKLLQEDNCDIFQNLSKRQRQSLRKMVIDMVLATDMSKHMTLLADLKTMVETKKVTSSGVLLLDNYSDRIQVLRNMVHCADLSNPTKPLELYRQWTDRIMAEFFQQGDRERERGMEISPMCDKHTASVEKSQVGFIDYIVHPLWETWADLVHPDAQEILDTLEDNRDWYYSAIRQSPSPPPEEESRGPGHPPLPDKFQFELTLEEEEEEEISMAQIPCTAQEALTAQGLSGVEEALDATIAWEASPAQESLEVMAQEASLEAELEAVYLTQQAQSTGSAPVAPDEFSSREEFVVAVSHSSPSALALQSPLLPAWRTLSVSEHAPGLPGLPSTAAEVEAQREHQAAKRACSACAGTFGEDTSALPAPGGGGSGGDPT
T3 sequence (Q08499 303-809): as the sequence (Q08499 303-809) above
T5 sequence (Q08499 388-715): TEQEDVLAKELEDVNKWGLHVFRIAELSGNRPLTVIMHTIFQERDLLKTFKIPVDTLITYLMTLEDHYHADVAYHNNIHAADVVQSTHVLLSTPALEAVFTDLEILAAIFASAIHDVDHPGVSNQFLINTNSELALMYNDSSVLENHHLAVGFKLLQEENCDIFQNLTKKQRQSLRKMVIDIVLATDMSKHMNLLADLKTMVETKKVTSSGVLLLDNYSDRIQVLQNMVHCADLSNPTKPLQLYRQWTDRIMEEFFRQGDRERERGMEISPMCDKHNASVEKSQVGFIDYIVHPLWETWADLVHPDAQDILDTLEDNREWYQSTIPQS
Chain of PDE7A (Q13946 whole entry): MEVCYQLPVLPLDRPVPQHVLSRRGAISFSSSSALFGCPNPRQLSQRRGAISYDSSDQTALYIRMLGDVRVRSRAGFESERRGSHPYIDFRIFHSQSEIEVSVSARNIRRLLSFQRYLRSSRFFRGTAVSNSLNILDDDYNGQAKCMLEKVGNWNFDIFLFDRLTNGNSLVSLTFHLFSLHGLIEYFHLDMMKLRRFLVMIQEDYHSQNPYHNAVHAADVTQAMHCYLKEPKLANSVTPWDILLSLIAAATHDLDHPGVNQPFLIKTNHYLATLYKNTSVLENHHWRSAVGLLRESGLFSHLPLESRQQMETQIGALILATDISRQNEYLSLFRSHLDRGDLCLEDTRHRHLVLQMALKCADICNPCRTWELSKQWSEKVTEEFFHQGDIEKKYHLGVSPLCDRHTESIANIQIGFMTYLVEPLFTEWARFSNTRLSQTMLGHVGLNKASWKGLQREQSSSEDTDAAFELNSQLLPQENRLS

pEC50 (PDE7B): 5.68 | pEC50 (PDE4D2): 3.85
SMILES: CCN(CC)c1ncnc2sc3c(c12)CCCC3 [BC44]

cAMP Response (% rolipram), 4D3 (PDE4D3): 12.00 % rolipram
SMILES: COC(=O)C1=C(C)N(C2CCCCC2)C(=O)/C1=C\c1cccs1 [Compound 22]

cAMP Response (% rolipram), 4D3 (PDE4D3): 8.00 % rolipram
SMILES: COC(=O)C1=C(C)N(c2ccccc2Cl)C(=O)/C1=C\c1cccs1 [Compound 27]

pEC50 (PDE7B): < 3.70 | pEC50 (PDE4D2): < 3.70
SMILES: Cc1sc2ncnc(Nc3ccccc3)c2c1C [BC64]

pIC50 (PDE4B2): ~5.70 | pIC50 (PDE4D2-FL): < 5.70 | pIC50 (PDE4A10): < 5.70 | pIC50 (PDE4D2-CAT): > 7.00
SMILES: N#Cc1sc2sc(C#N)c(-c3ccco3)c2c1N [Compound 30]

remaining activity at 2 µM (PDE4D): 77% | remaining activity at 2 µM (PDE7A): 52% | remaining activity at 2 µM (PDE4A): 84% | remaining activity at 2 µM (PDE4B): 72%
SMILES: Cc1c(C(=O)Nc2ccc(F)cc2F)sc2ncnc(N(C)c3ccccc3)c12 [Compound 58-9]
